From ChEMBL document CHEMBL1143471, “Synthesis of [1,2,4]triazolo[1,5-a]pyrazines as adenosine A2A receptor antagonists” (Bioorg Med Chem Lett, 2005)

Legend:
[1] = biological target: Adenosine receptor A2a (Rattus norvegicus, UniProt P30543); experiment: biochemical
[2] = biological target: T1, Adenosine receptor A1 (Rattus norvegicus, UniProt P25099); experiment: biochemical
T1 sequence (P25099 whole entry): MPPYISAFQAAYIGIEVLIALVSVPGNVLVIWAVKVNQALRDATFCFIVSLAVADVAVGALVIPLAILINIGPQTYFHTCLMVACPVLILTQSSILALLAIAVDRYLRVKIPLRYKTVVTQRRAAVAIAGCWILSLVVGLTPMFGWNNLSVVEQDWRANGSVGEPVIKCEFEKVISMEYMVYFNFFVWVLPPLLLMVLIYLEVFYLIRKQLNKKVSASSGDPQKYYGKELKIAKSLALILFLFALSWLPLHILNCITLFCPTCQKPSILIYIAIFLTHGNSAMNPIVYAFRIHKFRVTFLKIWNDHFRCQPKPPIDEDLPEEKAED

Chain of Adenosine receptor A2a (P30543 whole entry): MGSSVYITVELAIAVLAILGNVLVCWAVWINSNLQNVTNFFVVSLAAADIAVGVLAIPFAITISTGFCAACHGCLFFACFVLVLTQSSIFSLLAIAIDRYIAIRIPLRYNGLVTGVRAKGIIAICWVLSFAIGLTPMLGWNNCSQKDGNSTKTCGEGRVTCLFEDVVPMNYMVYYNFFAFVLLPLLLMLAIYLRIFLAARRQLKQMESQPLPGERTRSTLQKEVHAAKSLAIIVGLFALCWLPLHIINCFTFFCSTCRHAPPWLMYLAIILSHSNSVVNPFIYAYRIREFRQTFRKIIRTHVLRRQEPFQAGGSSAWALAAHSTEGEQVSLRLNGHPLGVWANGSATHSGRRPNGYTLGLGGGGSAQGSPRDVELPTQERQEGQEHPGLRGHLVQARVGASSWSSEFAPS

SMILES	Ki [1]	Ki [2]
Nc1nc(-c2cccc3ccccc23)cn2nc(-c3ccco3)nc12	420 nM	
Nc1nc(-c2ccc([N+](=O)[O-])cc2)cn2nc(-c3ccco3)nc12	> 1000 nM	
Nc1nc(-c2cccc(C(=O)NCCc3ccc(O)cc3)c2)cn2nc(-c3ccco3)nc12	180 nM	> 250 nM
Nc1nc(-c2cccc(C(=O)N3CCN(Cc4ccccc4)CC3)c2)cn2nc(-c3ccco3)nc12	680 nM	> 250 nM
Nc1nc(-c2ccc(C(=O)NCCCn3ccnc3)cc2)cn2nc(-c3ccco3)nc12	330 nM	> 250 nM
Nc1nc(C(=O)N2CCN(Cc3ccccc3)CC2)cn2nc(-c3ccco3)nc12	> 250 nM	> 250 nM
Nc1nc(-c2cncnc2)cn2nc(-c3ccco3)nc12	360 nM	
Nc1nc(-c2cccc(C(=O)N3CCOCC3)c2)cn2nc(-c3ccco3)nc12	240 nM	< 250 nM
Nc1nc(C(=O)N2CCN(c3ccncc3)CC2)cn2nc(-c3ccco3)nc12	> 250 nM	> 250 nM
CN(C)c1ccc(-c2cn3nc(-c4ccco4)nc3c(N)n2)cc1	> 1000 nM	
Nc1nc(-c2cccc(C(=O)N3CCN(c4ccncc4)CC3)c2)cn2nc(-c3ccco3)nc12	730 nM	3 nM
Nc1nc(C(=O)N2CCOCC2)cn2nc(-c3ccco3)nc12	> 250 nM	> 250 nM
CCOC(=O)c1ccc(-c2cn3nc(-c4ccco4)nc3c(N)n2)cc1	> 1000 nM	
CCN(CC)C(=O)c1cccc(-c2cn3nc(-c4ccco4)nc3c(N)n2)c1	1 nM	41 nM
Nc1nc(-c2ccc(CO)cc2)cn2nc(-c3ccco3)nc12	> 1000 nM	
Nc1nc(-c2ccc(C(=O)NCCc3ccc(O)cc3)cc2)cn2nc(-c3ccco3)nc12	830 nM	36 nM
CN(Cc1ccccc1)C(=O)c1cn2nc(-c3ccco3)nc2c(N)n1	27 nM	160 nM
Nc1nc(-c2ccc(C(F)(F)F)cc2)cn2nc(-c3ccco3)nc12	> 1000 nM	
Nc1nc(C(=O)NCc2ccccc2)cn2nc(-c3ccco3)nc12	2 nM	14 nM
Nc1nc(C(=O)NCCCc2ccccc2)cn2nc(-c3ccco3)nc12	28 nM	240 nM
Nc1nc(-c2cccc3cccnc23)cn2nc(-c3ccco3)nc12	250 nM	
N#Cc1ccc(-c2cn3nc(-c4ccco4)nc3c(N)n2)cc1	> 1000 nM	
Nc1nc(-c2ccco2)cn2nc(-c3ccco3)nc12	400 nM	
CC(C)NC(=O)c1cccc(-c2cn3nc(-c4ccco4)nc3c(N)n2)c1	140 nM	290 nM
Nc1nc(C(=O)NCCc2ccc(O)cc2)cn2nc(-c3ccco3)nc12	1 nM	320 nM
Nc1nc(-c2ccc(C(=O)N3CCOCC3)cc2)cn2nc(-c3ccco3)nc12	19 nM	1800 nM
CN(C)C(=O)c1cccc(-c2cn3nc(-c4ccco4)nc3c(N)n2)c1	70 nM	120 nM
CCCCNC(=O)c1cn2nc(-c3ccco3)nc2c(N)n1	1 nM	120 nM

Continued, values first:

Ki [1]	Ki [2]	SMILES
> 1000 nM		Nc1nc(-c2cccc(C(=O)O)c2)cn2nc(-c3ccco3)nc12
460 nM		Nc1nc(-c2cccnc2)cn2nc(-c3ccco3)nc12
460 nM		Nc1nc(-c2cccc([N+](=O)[O-])c2)cn2nc(-c3ccco3)nc12
75 nM		CC(=O)c1cccc(-c2cn3nc(-c4ccco4)nc3c(N)n2)c1
630 nM		Nc1cccc(-c2cn3nc(-c4ccco4)nc3c(N)n2)c1
140 nM		CN(C)c1cccc(-c2cn3nc(-c4ccco4)nc3c(N)n2)c1
> 1000 nM		Nc1ccc(-c2cn3nc(-c4ccco4)nc3c(N)n2)cc1
370 nM		CCOC(=O)c1cccc(-c2cn3nc(-c4ccco4)nc3c(N)n2)c1
680 nM		CC(C)c1cccc(-c2cn3nc(-c4ccco4)nc3c(N)n2)c1
220 nM		Nc1nc(-c2cccc(C(F)(F)F)c2)cn2nc(-c3ccco3)nc12
110 nM		NC(=O)c1cccc(-c2cn3nc(-c4ccco4)nc3c(N)n2)c1
160 nM		N#Cc1cccc(-c2cn3nc(-c4ccco4)nc3c(N)n2)c1
160 nM		CC(=O)Nc1cccc(-c2cn3nc(-c4ccco4)nc3c(N)n2)c1
470 nM		Nc1nc(-c2cccc(CO)c2)cn2nc(-c3ccco3)nc12
270 nM		COc1cccc(-c2cn3nc(-c4ccco4)nc3c(N)n2)c1
110 nM		CS(=O)(=O)c1cccc(-c2cn3nc(-c4ccco4)nc3c(N)n2)c1
